According to patent US6720342B2, “Heterocyclic compounds and their preparation and use” (Novo Nordisk A/S, priority 1996, dated 2004):
Counter-ions that a name gives are not always drawn.

Assays:
[1] = target: T1, muscarinic receptors (M1-site, pirenzepine sensitive site) (Rattus norvegicus, UniProt P08482); assay: Inhibition of 3H-PRZ (pirenzepine, [N-methyl-3H]) binding to rat cerebral cortex membranes; conditions: 1.0 nM 3H-Pirenzepine, 60 min at 20° C.
T1 construct: Fresh cortex (0.1-1 g) from male Wistar rats (150-200 g) is homogenized; from tissue; host or cells: rat (male Wistar) cerebral cortex membranes
T1 sequence (P08482 1-460): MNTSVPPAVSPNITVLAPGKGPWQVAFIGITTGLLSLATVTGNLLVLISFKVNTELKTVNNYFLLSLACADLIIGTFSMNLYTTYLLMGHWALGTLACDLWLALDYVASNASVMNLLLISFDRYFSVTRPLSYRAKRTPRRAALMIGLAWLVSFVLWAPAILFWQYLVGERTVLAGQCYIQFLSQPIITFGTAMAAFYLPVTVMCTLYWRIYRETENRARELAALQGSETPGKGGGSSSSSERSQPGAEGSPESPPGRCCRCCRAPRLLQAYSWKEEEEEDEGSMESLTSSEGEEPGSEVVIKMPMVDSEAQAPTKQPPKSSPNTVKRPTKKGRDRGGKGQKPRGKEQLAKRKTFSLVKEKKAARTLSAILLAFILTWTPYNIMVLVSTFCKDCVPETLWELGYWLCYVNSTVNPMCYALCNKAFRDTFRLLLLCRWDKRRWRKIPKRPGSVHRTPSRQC
Description: Furthermore the pharmacological properties of the compounds of the invention can also be illustrated by determining their capability to inhibit ^3H-PRZ (pirenzepine, [N-methyl-^3H]) binding to rat cerebral cortex membranes. Pirenzepine binds selectively to subtype of muscarinic receptors. Historically the type is named the M1-site, whereas pirenzepine sensitive site would be more appropriate. Although selective for M1-sites pirenzepine also interact with M2-sites.
(§1) All preparations are performed at 0-4° C. unless otherwise indicated. Fresh cortex (0.1-1 g) from male Wistar rats (150-200 g) is homogenized for 5-10 s. in 10 ml 20 mM Hepes pH: 7.4, with an Ultra-Turrax homogenizer. The homogenizer is rinsed with 2×10 ml of buffer and the combined suspension centrifuged for 15 min at 40,000×g. The pellet is washed three times with buffer. In each step the pellet is homogenized as before in 3×10 ml of buffer and centrifuged for 10 min at 40,000×g.
The final pellet is homogenized in 20 mM Hepes pH: 7.4 (100 ml per g of original tissue) and used for binding assay. Aliquots of 0.5 ml is added 20 μl of test solution and 25 μl of ^3H-Pirenzepine (1.0 nM, final conc.), mixed and incubated for 60 min at 20° C. Non-specific binding is determined in triplicate using atropine (1 μg/ml, final conc.) as the test substance. After incubation samples are added 5 ml of ice-cold buffer and poured directly onto Whatman GF/C glass fiber filters under suction and immediately washed 2 times with 5 ml of ice-cold buffer. The amount of radioactivity on the filters are determined by conventional liquid scintillation counting. Specific binding is total binding minus non-specific binding.
Test substances are dissolved in 10 ml water, at a concentration of 0.22 mg/ml. 25-75% inhibition of specific binding must be obtained before calculation of IC50.
The test value will be given as IC50 (the concentration (nM) of the test substance which inhibits the specific binding of ^3H-PRZ by 50%).
(§2) IC50=(applied test substance concentration)×(Cx/Co−Cx)nM
(§3) where Co is specific binding in control assays and Cx is the specific binding in the test assay. (The calculations assume normal mass-action kinetics).

[2] = target: muscarinic acetylcholine receptors; assay: Inhibition of specific binding of 3H-Oxotremorine-M (3H-Oxo) to rat cortex membranes; conditions: rat cortex homogenate, 1.0 nM 3H-Oxotremorine, 30 min at 25° C.
Description: The pharmacological properties of the compounds of the invention can be illustrated by determining their capability to inhibit the specific binding of ^3H-Oxotremorine-M (^3H-Oxo). Birdsdall N. J. M., Hulme E. C., and Burgen A. S. V. (1980). “The Character of Muscarinic Receptors in Different Regions of the Rat Brain”. Proc. Roy. Soc. London (Series B) 207, 1.
^3H-Oxo labels muscarinic receptor in the CNS (with a preference for agonist domains of the receptors). Three different sites are labelled by ^3H-Oxo. […] Using the present experimental conditions only the high and medium affinity sites are determined.
The inhibitory effects of compounds on ^3H-Oxo binding reflects the affinity for muscarinic acetylcholine receptors.
as §1, with “(150-250” for “(150-200”, “s” for “s.”, “10” for “2×10”, “min.” for “min”, “2×10” for “3×10”
The final pellet is homogenized in 20 mM Hepes pH: 7.4 (100 ml per g of original tissue) and used for binding assay. Aliquots of 0.5 ml is added 25 μl of test solution and 25 μl of ^3H-Oxotremorine (1.0 nM, final concentration) mixed and incubated for 30 min. at 25° C. Non-specific binding is determined in triplicate using arecoline (1 μg/ml, final concentration) as the test substance. After incubation samples are added 5 ml of ice-cold buffer and poured directly onto Whatman GF/C glass fiber filters under suction and immediately washed 2 times with 5 ml of ice-cold buffer. The amount of radioactivity on the filters are determined by conventional liquid scintillation counting. Specific binding is total binding minus non specific binding.
Test substances are dissolved in 10 ml water (if necessary heated on a steambath for less than 5 min.) at a concentration of 2.2 mg/ml. 25-75% inhibition of specific binding must be obtained before calculation of IC50.
The test value will be given as IC50 (the concentration (nM) of the test substance which inhibits the specific binding of ^3H-Oxo by 50%).
as §2, §3

melting point [°C]	IC50 [1] [nM]	IC50 [2] [nM]	SMILES
114 to 115	–	–	FC(F)(F)CCCSc1nsnc1OC1CN2CCC1C2 (stereo not drawn) (as salt: oxalate) [Compound 30, Endo 3-(3-(4,4,4-trifluorobutylthio)-1,2,5-thiadiazol-4-yloxy)-1-azabicyclo-[2.2.1]heptane, oxalate]
132 to 133	–	–	C(CC1CC1)Oc1nsnc1OC1CN2CCC1C2 (stereo not drawn) (as salt: oxalate) [Compound 8, Endo 3-(3-[2-cyclopropylethyl-1-oxy]-1,2,5-thiadiazol-4-yloxy)-1-azabicyclo[2.2.1]heptane, oxalate]
135 to 137	–	–	FC(F)(F)CCCOc1nsnc1OC1CN2CCC1C2 (stereo not drawn) (as salt: oxalate) [Compound 15, Endo 3-(3-[4,4,4-trifluorobutyl-1-oxy]-1,2,5-thiadiazol-4-yloxy)-1-azabicyclo[2.2.1]heptane, oxalate]
144 to 145	–	–	Fc1ccc(COc2nsnc2OC2CN3CCC2C3)cc1 (stereo not drawn) (as salt: oxalate) [Compound 9, Endo 3-(3-[4-fluorobenzyloxy]-1,2,5-thiadiazol-4-yloxy)-1-azabicyclo-[2.2.1]heptane, oxalate]
112 to 115	–	–	CC(C)=CCOc1nsnc1OC1CN2CCC1C2 (stereo not drawn) (as salt: oxalate) [Compound 7, Endo 3-(3-[3-methyl-2-butenyl-1-oxy]-1,2,5-thiadiazol-4-yloxy)-1-azabicyclo[2.2.1]heptane, oxalate]
–	9.1	3.1	FC(F)(F)CCSc1nsnc1OC1CN2CCC1C2 (stereo not drawn) [Compound 29, Endo 3-(3-(3,3,3-trifluoropropylthio)-1,2,5-thiadiazol-4-yloxy)-1-azabicyclo-[2.2.1]heptane, oxalate]
–	24	10	CC(C)=CCOc1nsnc1OC1CN2CCC1C2 (stereo not drawn) [Compound 7, Endo 3-(3-[3-methyl-2-butenyl-1-oxy]-1,2,5-thiadiazol-4-yloxy)-1-azabicyclo[2.2.1]heptane, oxalate]
–	129	148	Fc1cc(C(F)(F)F)ccc1COc1nsnc1OC1CN2CCC1C2 (stereo not drawn) [Compound 16, Endo 3-(3-[2-fluoro-4-(trifluoromethyl)-benzyloxy]-1,2,5-thiadiazol-4-yloxy)-1-azabicyclo[2.2.1]heptane, oxalate]
–	5.3	8.3	FC(F)(F)C(F)(F)C(F)(F)COc1nsnc1OC1CN2CCC1C2 (stereo not drawn) [Compound 27, Endo 3-(3-(2,2,3,3,4,4,4-heptafluorobutyl-1-oxy)-1,2,5-thiadiazol-4-yloxy)-1-azabicyclo[2.2.1]heptane, oxalate]
–	14	18	FC(F)(F)CCCOc1nsnc1OC1CN2CCC1C2 (stereo not drawn) [Compound 15, Endo 3-(3-[4,4,4-trifluorobutyl-1-oxy]-1,2,5-thiadiazol-4-yloxy)-1-azabicyclo[2.2.1]heptane, oxalate]

Further lines, the compound ahead of its results:

SMILES	melting point [°C]	IC50 [1] [nM]	IC50 [2] [nM]
N#CCCSc1nsnc1OC1CN2CCC1C2 (stereo not drawn) (as salt: oxalate) [Compound 32, Endo 3-(3-[2-cyanoethylthio]-1,2,5-thiadiazol-4-yloxy)-1-azabicyclo-[2.2.1]heptane, oxalate]	168 to 169	–	–
C(#Cc1cccnc1)COc1nsnc1OC1CN2CCC1C2 (stereo not drawn) (as salt: oxalate) [Compound 23, Endo 3-(3-(3-pyridyl)-2-propyn-1-yloxy)-1,2,5-thiadiazol-4-yloxy)-1-azabicyclo[2.2.1]heptane, dioxalate]	136 to 139	–	–
Fc1cccc(C#CCOc2nsnc2OC2CN3CCC2C3)c1 (stereo not drawn) (as salt: oxalate) [Compound 28, Endo 3-(3-(3-(3-fluorophenyl)-2-propyn-1-yloxy)-1,2,5-thiadiazol-4-yloxy-1-azabicyclo[2.2.1]heptane, oxalate]	175 to 177	–	–
CSCCOc1nsnc1OC1CN2CCC1C2 (stereo not drawn) (as salt: oxalate) [Compound 12, Endo 3-(3-methylthioethoxy-1,2,5-thiadiazol-4-yloxy)-1-azabicyclo-[2.2.1]heptane, oxalate]	117 to 119	–	–
COCCOc1nsnc1OC1CN2CCC1C2 (stereo not drawn) [Compound 13, Endo 3-(3-methoxyethoxy-1,2,5-thiadiazol-4-yloxy)-1-azabicyclo[2.2.1]heptane, oxalate]	–	44	4.3
C(#Cc1ccccn1)COc1nsnc1OC1CN2CCC1C2 (stereo not drawn) [Compound 25, Endo 3-(3-(2-pyridyl)-2-propyn-1-yloxy)-1,2,5-thiadiazol-4-yloxy)-1-azabicyclo[2.2.1]heptane, dioxalate]	–	4.5	1.7
Fc1ccc(C#CCOc2nsnc2OC2CN3CCC2C3)cc1 (stereo not drawn) [Compound 4, Endo 3-(3-[3-(4-fluorophenyl)-2-propynyl-1-oxy]-1,2,5-thiadiazol-4-yloxy)-1-azabicyclo[2.2.1]heptane, oxalate]	–	8.3	7.9
N#CCCSc1nsnc1OC1CN2CCC1C2 (stereo not drawn) [Compound 32, Endo 3-(3-[2-cyanoethylthio]-1,2,5-thiadiazol-4-yloxy)-1-azabicyclo-[2.2.1]heptane, oxalate]	–	34	3.1
CCCCSc1nsnc1OC1CN2CCC1C2 (stereo not drawn) [Compound 1, Endo 3-(3-butylthio-1,2,5-thiadiazol-4-yloxy)-1-azabicyclo[2.2.1]heptane, oxalate]	–	0.14	1.6
COc1cccc(C#CC(Oc2nsnc2OC2CN3CCC2C3)C(C)C)c1 (stereo not drawn) [Compound 39, Endo 3-(3-[1-(3-methoxyphenyl)-4-methyl-1-pentyn-3-yloxy]-1,2,5-thiadiazol-4-yloxy)-1-azabicyclo[2.2.1]heptane, oxalate]	–	56	105
CCCSc1nsnc1OC1CN2CCC1C2 (stereo not drawn) [Compound 2, Endo 3-(3-propylthio-1,2,5-thiadiazol-4-yloxy)-1-azabicyclo[2.2.1]heptane, oxalate]	–	4.2	1.4
Fc1ccc(CSc2nsnc2OC2CN3CCC2C3)c(F)c1 (stereo not drawn) [Compound 33, Endo 3-(3-[2,4-difluorobenzylthio]-1,2,5-thiadiazol-4-yloxy)-1-azabicyclo-[2.2.1]heptane, oxalate]	–	16	83
